Results on 3 compounds are retold here after US6297267A, “4,5-diaryloxazole compounds” (Fujisawa Pharmaceutical Co., Ltd., priority 1997, dated 2001).

The test system of this test is Human Platelet. In words: Inhibition of Human Platelet Aggregation Induced by ADP. In kind it is cell-based. The note with it: 2 min; Test Compound 1.0 × 10^-7 M; human platelet rich plasma; ADP 2.5 μM; 2 minutes at 37° C. As for the experimental part: Inhibition of Human Platelet Aggregation Induced by ADP
Human blood was collected from healthy volunteers and mixed with 1/10 volume of 3.8% sodium citrate solution, pH 7.4. The citrate blood was centrifuged at 150×g for 10 minutes and the platelet rich plasma (PRP) was removed. The remaining blood was centrifuged for a further 10 minutes at 1500×g to prepare the platelet poor plasma (PPP), which was used as a reference for platelet aggregation. Aggregation studies were carried out using HEMATRACER 801 (NBS, Japan), a 8 channel aggregometer. 25 μl of a solution of Test compound in Tris-acetate buffer pH 7.4 and 225 μl of PRP were mixed and stirred at 1000 rpm for 2 minutes at 37° C. Aggregation was induced by ADP (adenosin 5'-diphosphate) solution at the final concentration of 2.5 μM.
As usually defined, the inhibition is the drop in the measured response relative to a control, in per cent. A low value points to little suppression. For the compound `O=C(O)COc1cccc(CC2(O)CCCC=C2c2nc(-c3ccccc3)c(-c3ccccc3)o2)c1` (stereo not drawn) [(1)], the inhibition at 0.1 µM is over 90%.

The compound `O=C(O)COc1cccc(C[C@@H]2CCC(O)C=C2c2nc(-c3ccccc3)c(-c3ccccc3)o2)c1` (stereo partly drawn) [(2)] came in with an inhibition at 0.1 µM of over 90%.

The compound `O=C(O)COc1cccc(C[C@@H]2CCCC3OC32c2nc(-c3ccccc3)c(-c3ccccc3)o2)c1` (stereo partly drawn) [(3)] showed an inhibition at 0.1 µM of over 90%.
